| Structure (SMILES) | melting point |
| --- | --- |
| BrC(Br)=C(Br)Br | 56.5 °C |
| COC(=O)CC#N | -13 °C |
| O=C(Cn1ccnc1[N+](=O)[O-])NCc1ccccc1 | 189 °C |
| CCC1(c2ccccc2)C(=O)NCNC1=O | 281 °C |
| N=C(N)NC(=O)Cc1c(Cl)cccc1Cl | 226 °C |
| CC(=O)OCC1OC(n2cnc3c(=O)[nH]c(N)nc32)C(OC(C)=O)C1OC(C)=O (configuration not stated) | 224 to 233 °C |
| Cc1c(F)ccc(C#N)c1F | 44 °C |
| O=[N+]([O-])c1ccc(NN=Cc2cccc3c(Br)cccc23)cc1 | 267 to 268 °C |
| Cc1nc(C2CCN(C(=O)OC(C)(C)C)CC2)sc1C=O | 220 °C |
| NNc1ccc(C(F)(F)F)cc1 | 62 °C |
| Cn1nc(C(=O)O)cc1-c1ccco1 | 142 to 144 °C |
| CCCCCCCOC(=O)CC | -50.9 °C |
| COC(=O)C1=C(C)NC(CBr)=C(C(=O)OCCCl)C1c1cccc([N+](=O)[O-])c1 (configuration not stated) | 205 to 206 °C |
| OCCNc1ccccc1 | 11 °C |
| Cc1cccc(CCC(=O)O)c1 | 41 to 44 °C |
| ON=C(c1ccccc1)c1ccc(Cl)cc1 | 133 °C |
| Cc1cc2c(o1)-c1c(oc3ccccc13)CCC2(C)c1ccccc1 (configuration not stated) | 135 °C |
| O=C(O)c1cc2cc([N+](=O)[O-])ccc2o1 | 274 to 275 °C |
| CC(C)c1ccc(Br)cc1 | -12 °C |
| Cc1ccc(C=NO)cc1 | 126 °C |
| COc1cc(CC2c3cc(OC)c(OC)cc3CCN2C)c(Oc2cc3c(cc2OC)-c2c(OC)c(OC)cc4c2C(C3)N(C)CC4)cc1OC (configuration not stated) | 160 °C |
| O=C(c1ccccc1)c1nn2c(C(F)(F)F)nnc2s1 | 157 °C |

| Structure (SMILES) | melting point |
| --- | --- |
| CC1CCC(C(C)C)C(OC(=O)C(C(=O)c2ccccc2)C(=O)c2ccccc2)C1 (configuration not stated) | 138 °C |
| Cc1cc(O)c(C(C)(C)C)cc1C(C)(C)C | 62.1 °C |
| C=CC1(C)C=C2CCC3C(C)(C(=O)O)CCCC3(C)C2CC1 (configuration not stated) | 218 °C |
| COc1cc(I)c(OC)cc1C | 84 to 86 °C |
| CCOC(=O)C(CCC(=O)O)(CCC(=O)O)C(C)=O | 105 to 108 °C |
| Nc1cccnc1N1CCOCC1 | 127 to 128 °C |
| Nc1nc(-c2ccccc2)cs1 | 150 °C |
| Cc1cc(C)c(C=O)[nH]1 | 90 to 91 °C |
| N[C@@H](CSCC(=O)O)C(=O)O | 206 °C |
| CCOCCOCCOCCO | -18.7 °C |
| NNC(=O)C(O)(c1ccccc1)c1ccccc1 | 168 to 169 °C |
| CC(O)CCO (configuration not stated) | -54 °C |
| O=C1c2ccccc2C(=O)N1CCS(=O)(=O)Cl | 158 °C |
| Cc1c(C)n(C(=O)c2ccccc2)c2ccccc12 | 98 °C |
| O=C(O)c1ccc(F)cc1O | 191 °C |
| O=CC=Cc1ccc([N+](=O)[O-])cc1 | 142 °C |
| CCOC(=O)C=Cc1ccc(N=[N+]([O-])c2ccc(C=CC(=O)OCC)cc2)cc1 | 141 °C |
| CCOC(=O)C1CCN(c2ccc(C#N)cc2)CC1 | 67 to 68 °C |
| N#Cc1cccc(N2CCOCC2)n1 | 133 to 135 °C |
| NCCCC(N)C(=O)O (configuration not stated) | 140 °C |
| Oc1ccc(-n2ccnc2)cc1 | 204 to 206 °C |
| Nc1nnc(C2CC2)[nH]1 | 128 to 130 °C |

| Structure (SMILES) | melting point |
| --- | --- |
| CC(C)(C)N(NC(=O)c1ccccc1)C(=O)c1ccccc1[N+](=O)[O-] | 182 °C |
| Clc1cc2oc3c(Cl)cc(Cl)c(Cl)c3c2cc1Cl | 237 °C |
| CC(O)COC(C)(C)C (configuration not stated) | -56 °C |
| c1ccc(C2=C(c3ccccc3)C(c3ccccc3)=C(c3ccccc3)C2)cc1 | 179 to 182 °C |
| Cc1c(Cl)c(Cl)c(Cl)c(Cl)c1Cl | 225 °C |
| CCC(=O)OC(Cc1ccccc1)(c1ccccc1)C(C)CN(C)C (configuration not stated) | 75 °C |
| CCCCCCCCCCOc1ccc(C(C)=O)cc1OCCCCCCCCCC | 61 to 65 °C |
| COC(=O)[C@@H](CC(=O)O)C1CCCCC1 | 47.9 °C |
| O=C(O)CC(=O)O | 136 °C |
| COc1ccc(C(=O)C(O)c2ccc(OC)cc2)cc1 (configuration not stated) | 112 °C |
| CC(C)C1CC(=O)CC(=O)C1 | 80 °C |
| O/N=C1\C(c2ccccc2)=Nc2ccccc21 | 260 °C |
| COC(=O)c1sc(N2CCCCC2)c(C#N)c1N | 184 to 185 °C |
| O=C1Cc2cc3c(cc21)CC3=O | 237 °C |
| COc1cc(C=CC(=O)O)ccc1OCc1ccccc1 | 192 °C |
| Nc1ccc(N=O)c(N)n1 | 260 to 266 °C |
| Fc1ccc(Br)nc1 | 28.5 °C |
| Cc1cc(C(F)(F)F)n2nc(-c3ccccc3)cc2n1 | 174 °C |
| CNc1nnc(C(F)(F)F)s1 | 115 to 117 °C |
| O=Cc1ccc(-c2ccco2)s1 | 40 to 41 °C |
| O=S(=O)(Cl)c1ccc(C(F)(F)F)cc1Cl | 37 °C |
| CC(=O)N1CCc2ccc(N)cc21 | 182 to 185 °C |

| Structure (SMILES) | melting point |
| --- | --- |
| O=Cc1scc2c1OCCO2 | 138 to 140 °C |
| CCCCOC(=O)c1ccccc1O | -5.9 °C |
| O=C1C(Cl)=C(Cl)C(=O)c2ccccc21 | 195 °C |
| CCCCCCCCCCCCCBr | 6.2 °C |
| OCc1ccc(Br)cc1F | 32 °C |
| O=c1[nH]ncc2ccccc12 | 188 °C |
| COc1cc2c(cc1C)C(Cl)C2 (configuration not stated) | 41 °C |
| COP(=S)(OC)SCC(=O)N(C)C=O | 25.5 °C |
| COc1ccc([N+](=O)[O-])c(O)c1 | 90 to 94 °C |
| CSC(S)=Nc1ccc(N)cc1 | 188 to 190 °C |
| CC(=O)Nc1ccc([N+](=O)[O-])cn1 | 200 °C |
| Cc1cc2c(C)ccc(C)c2cc1C | 64 °C |
| NC(=O)c1nc(-c2ccccc2)n(-c2ccc(Cl)c(COCC(F)(F)C(F)(F)F)c2)n1 | 146 °C |
| Cc1nc(NC(=O)NS(=O)(=O)c2cccs2)nc(O)c1C | 219 to 221 °C |
| CSc1nc2ccccc2c(=O)n1-c1ccccc1 | 123 to 125 °C |
| Oc1ccccc1/C=C/c1ccccc1 | 147 °C |
| Oc1c(Cl)c(Cl)c(Cl)c(Cl)c1Cl | 191 °C |
| Cc1c(-c2ccccc2)c2ccccc2n1C | 111 °C |
| CC(=O)OC1(C(C)=O)CCC2(C)C(CCC3C4CCCC4(C)CCC32)C1 (configuration not stated) | 164 to 166 °C |
| CCC(C)CC(=O)O (racemic) | -41 °C |
| CCOC(=O)C(=Cc1cc(C=C(C(=O)OCC)C(=O)OCC)cc([N+](=O)[O-])c1)C(=O)OCC | 80 °C |
| NC(=O)NC(CC(=O)O)C(=O)O (racemic) | 174 to 175 °C |

| Structure (SMILES) | melting point |
| --- | --- |
| N#CC1(OC(=O)c2ccccc2)Cc2ccccc21 (configuration not stated) | 112 °C |
| CCCCCCCCC(=O)OC1CCC2(C)C(=CCC3C2CCC2(C)C(C(C)CCCC(C)C)CCC32)C1 (configuration not stated) | 74 to 77 °C |
| O=S(=O)(Cl)c1cc2ccccc2s1 | 75 to 76 °C |
| CCOC(=O)c1ccc(CBr)cc1 | 30.5 °C |
| CC1(C)C2CCC1(CS(=O)(=O)Cl)C(=O)C2 (configuration not stated) | 66 °C |
| O=C(O)c1sccc1Br | 196 °C |
| CC(=O)N1CCc2ccccc21 | 102 to 104 °C |
| O=C(Nc1ccccc1)c1cccnc1 | 120 °C |
| NC(=O)c1ccccc1C(N)=O | 222 °C |
| C#CCOCc1cc(COCC#C)c(COCC#C)cc1COCC#C | 66 °C |
| O=C(NC(Cc1ccccc1)c1ccccc1)c1cccnc1 (configuration not stated) | 159 °C |
| CCOC(=O)C(=O)C(=O)OCC | -30 °C |
| CC1(C)N=C(N)N=C(N)N1c1ccc(Cl)cc1 | 146 °C |
| COc1ccc([N+](=O)[O-])cc1NN=C1C(=O)C(C(=O)Nc2cccc([N+](=O)[O-])c2)=Cc2ccccc21 | 335 °C |
| O=C1c2ccccc2C(=O)N1CC#CCCl | 118 °C |
| O=c1ccc2cc(Cl)ccc2o1 | 165 °C |
| COC(=O)c1ccc(N)c(N)c1 | 108 to 109 °C |
| Cc1onc(-c2ccccc2)c1CO | 81 to 82 °C |
| CC(C)(C)N(NC(=O)c1ccccc1)C(=O)c1ccccc1I | 188 °C |
| O=C1Nc2ccccc2/C1=C/c1ccccc1[N+](=O)[O-] | 82 °C |
| Oc1noc2nc3ccccc3nc12 | 320 to 325 °C |
| OCc1ccc(-c2ccccn2)s1 | 86 to 88 °C |

| Structure (SMILES) | melting point |
| --- | --- |
| O=S(=O)(Cl)c1ccc(-c2ccccc2)nc1 | 106 to 108 °C |
| Cc1cc(C(F)(F)F)n2nc(-c3ccc(Cl)cc3)cc2n1 | 176 °C |
| c1ccc(-c2ccc(-c3nc4ccc(-c5ccccc5)cc4o3)cc2)cc1 | 199 to 201 °C |
| CC(=O)OCCC(C)C | -78.5 °C |
| Cc1cc(C(N)=O)no1 | 171 to 173 °C |
| O=Cc1ccc(Br)c(Br)c1 | 71 °C |
| FC(F)(F)c1ccccc1CBr | 34 to 35 °C |
| CCN(CC)c1ccccc1C | -60 °C |
| COc1ccc(-c2onc(C(=O)c3ccc(Br)cc3)c2S(=O)(=O)c2ccccc2)cc1 | 140 °C |
| CCCCC(=O)N(C)C | -51 °C |
| COc1ccc(-c2ocnc2C(=O)Cl)cc1 | 97 to 99 °C |
| CCOC(=O)c1cc(C(C)(C)C)nn1Cc1c(C)cc(C)cc1C | 72 to 74 °C |
| N#Cc1ccc(OC2CCOCC2)cc1 | 109 to 112 °C |
| CN=NC | -78 °C |
| Cc1noc(-c2ccccc2Br)n1 | 43 to 44 °C |
| CCn1cc(C(=O)O)c(=O)c2cc(F)c(N3CCNCC3)nc21 | 222 °C |
| COc1cc(CCl)c(OC)cc1CCl | 164 to 165 °C |
| CC(=O)Nc1cc(C(F)(F)F)cc(C(F)(F)F)c1 | 161 °C |
| O=S(=O)(O)CC(O)CN1CCOCC1 (configuration not stated) | 273 to 274 °C |
| c1ccc(-c2cc(N3CCCC3)cc(N3CCCC3)c2)cc1 | 174 °C |
| O=C(C=CC=Cc1ccccc1)C=CC=Cc1ccccc1 | 139 to 144 °C |
| NC(=NO)c1cccc(C(F)(F)F)c1 | 82 to 88 °C |
